Measurements: patent US12486287B2, “Solid forms of a promoter of spinogenesis” (Spinogenix, Inc., priority 2019, dated 2025)
≈ marks a conversion by molar mass, not a printed value. Values belong to the compound of their own block, whether it stands above or below them.

Assays:
Format in all cases: physicochemical
[1] = Dynamic vapor sorption (DVS)
Experimental: DVS was measured via a SMS (Surface Measurement Systems) DVS Intrinsic. The relative humidity at 25° C. were calibrated against deliquescence point of LiCl, Mg(NO3)2 and KCl.
Compound I starting material was the delivered sample. The starting material was characterized by XRPD, thermo-gravimetric analysis (TGA), differential scanning calorimetry (DSC), PLM and dynamic vapor sorption (DVS).

[2] = Solid state stability evaluation (XRPD, PLM, HPLC purity after storage); conditions: for HPLC purity decrease after storage / Form change after storage (XRPD): 30° C./65% RH and 40° C./75% RH, open and closed; for Form change after storage (XRPD): up to 4 weeks; for Purity (Area %): HPLC; for Form Change: XRPD
Experimental: Agilent 1260 HPLC with VWD detector was utilized and detailed chromatographic conditions for purity analysis are listed ill Table 1-4.
The solid state stability of Compound I was evaluated under conditions of 30° C./65% RH (open dish and closed container) and 40° C./75% RH (open dish and closed container) for 4 weeks. The detailed procedures utilized for stability evaluation are listed: 1) Weighed about 10 mg of Compound I starting material into 3-mL glass vials; 2) For the open dish conditions, covered the vials with Parafilm® and poked 6 holes. For the closed conditions, sealed the vials with caps and kept the vials in the corresponding conditions, respectively; For the condition of 40° C./75% RH, placed the vials in the stability chamber of 40° C./75% RH; For the condition of 30° C./65% RH, placed the vials in the airtight atmosphere generated by saturated aqueous potassium iodide solution in 30° C. bio-chemical; 4) Samples taken for XRPD, PLM, and HPLC purity after 3 days, 1 week, 2 weeks and 4 weeks.
Solid state stability evaluation of Compound I Form I starting material was performed under conditions of 30° C./65% RH (closed and open) and 40° C./75% RH (closed and open). X-ray powder diffraction (XRPD), polarizing microscope (PLM) and HPLC purity were characterized at 4 sampling points (3 days, 1 week, 2 weeks, 4 weeks).
For the single crystal structure determination, 83 single crystal growth experiments were performed by different methods including slow evaporation, liquid vapor diffusion, slow cooling, heating-cooling and solvent-thermal synthesis. The stability evaluation experiments in 40° C./75% RH condition were performed using stability chamber, while the 30° C./65% RH condition was set up by saturated aqueous potassium iodide solution in 30° C. bio-chemical incubator.

[3] = Stability / interconversion of crystal forms (XRPD)
Experimental: Compound I was subjected to various crystallization conditions, including solid vapor diffusion, anti-solvent addition, liquid vapor diffusion, slow cooling, slurry conversion at various temperatures, temperature cycling, and slow evaporation. Crystalline forms of Compound I were analyzed by X-ray powder diffraction (XRPD), differential scanning calorimetry (DSC) and thermogravimetric analysis (TGA), while metastable forms were analyzed by XRPD. XRPD was performed with a Panalytical X'Pert3 Powder XRPD with a Si zero-background holder. The 2θ position was calibrated against a Panalytical Si reference standard disc.
Forms II and III only existed in the wet state and no solid was isolated for thermal analyses. Form V solids were obtained, however, Form V changed to Form I at around 50° C. upon drying in a vacuum oven. A summary of isolated forms and conditions is in Table 1-5 and Table 1-6.

[4] = Approximate solubility in single solvents at RT; conditions: thermodynamic from solid, room temperature
Experimental: Approximate solubility of Compound I was determined in 20 single solvents at RT. Approximately 2 mg of powder sample was added into a 3-mL glass vial. Corresponding solvents were added stepwise (50 μL→100 μL→300 μL→1000 μL) into each vial until powder solids were completely dissolved visually or a total volume of 1 mL solvent was added. Approximate solubility values were calculated based on sample mass, solvent volume, and experimental observation. Results summarized in Table 3-1 were used to guide subsequent solvent selection in the design of polymorph screening experiments.

[5] = 30° C./65% RH, closed container, 1 week
[6] = 30° C./65% RH, closed container, 2 weeks
[7] = 30° C./65% RH, closed container, 4 weeks
[8] = 30° C./65% RH, closed container, 3 days
[9] = 30° C./65% RH, open dish, 1 week
[10] = 30° C./65% RH, open dish, 2 weeks
[11] = 30° C./65% RH, open dish, 4 weeks
[12] = 30° C./65% RH, open dish, 3 days
[13] = 40° C./75% RH, closed container, 1 week
[14] = 40° C./75% RH, closed container, 2 weeks
[15] = 40° C./75% RH, closed container, 4 weeks
[16] = 40° C./75% RH, closed container, 3 days
[17] = 40° C./75% RH, open dish, 1 week
[18] = 40° C./75% RH, open dish, 2 weeks
[19] = 40° C./75% RH, open dish, 4 weeks
[20] = 40° C./75% RH, open dish, 3 days

- Form change after DVS test (XRPD) ([1]; 25° C., 0% RH-95% RH-0% RH): No form change was observed
- Water uptake (DVS) ([1]; 25° C./80% RH): 0.64%
- Water uptake (DVS) ([1]; 25° C./95% RH): 21.43%
- Form change after storage (XRPD) [2]: No form change
- Purity/Initial (%) [2, 5]: 100.0%
- Purity (Area %) [2, 5]: 99.66 Area %
- Form Change [2, 5]: No
- Purity/Initial (%) [2, 6]: 100.0%
- Purity (Area %) [2, 6]: 99.64 Area %
- Form Change [2, 6]: No
- Purity/Initial (%) [2, 7]: 100.0%
- Purity (Area %) [2, 7]: 99.66 Area %
- Form Change [2, 7]: No
- Purity/Initial (%) [2, 8]: 100.0%
- Purity (Area %) [2, 8]: 99.68 Area %
- Form Change [2, 8]: No
- Purity/Initial (%) [2, 9]: 100.0%
- Purity (Area %) [2, 9]: 99.66 Area %
- Form Change [2, 9]: No
- Purity/Initial (%) [2, 10]: 100.0%
- Purity (Area %) [2, 10]: 99.63 Area %
- Form Change [2, 10]: No
- Purity/Initial (%) [2, 11]: 100.0%
- Purity (Area %) [2, 11]: 99.66 Area %
- Form Change [2, 11]: No
- Purity/Initial (%) [2, 12]: 100.0%
- Purity (Area %) [2, 12]: 99.69 Area %
- Form Change [2, 12]: No
- Purity/Initial (%) [2, 13]: 100.0%
- Purity (Area %) [2, 13]: 99.66 Area %
- Form Change [2, 13]: No
- Purity/Initial (%) [2, 14]: 99.8%
- Purity (Area %) [2, 14]: 99.45 Area %
- Form Change [2, 14]: No
- Purity/Initial (%) [2, 15]: 100.0%
- Purity (Area %) [2, 15]: 99.65 Area %
- Form Change [2, 15]: No
- Purity/Initial (%) [2, 16]: 100.1%
- Purity (Area %) [2, 16]: 99.76 Area %
- Form Change [2, 16]: No
- Purity/Initial (%) [2, 17]: 100.0%
- Purity (Area %) [2, 17]: 99.66 Area %
- Form Change [2, 17]: No
- Purity/Initial (%) [2, 18]: 100.0%
- Purity (Area %) [2, 18]: 99.63 Area %
- Form Change [2, 18]: No
- Purity/Initial (%) [2, 19]: 100.0%
- Purity (Area %) [2, 19]: 99.65 Area %
- Form Change [2, 19]: No
- Purity/Initial (%) [2, 20]: 99.9%
- Purity (Area %) [2, 20]: 99.61 Area %
- Form Change [2, 20]: No
SMILES: OCCOCCOCCOCCOc1ccc(-c2nc3ccccc3s2)cc1 [Compound I Form I, 2-(2-(2-(2-(4-(benzo[d]thiazol-2-yl)phenoxy)ethoxy)ethoxy)ethoxy)ethan-1-ol]
- HPLC purity decrease after storage ([2]; 4 weeks): No form change and significant HPLC purity decrease were observed

SMILES: OCCOCCOCCOCCOc1ccc(-c2nc3ccccc3s2)cc1 [Compound I Form II, 2-(2-(2-(2-(4-(benzo[d]thiazol-2-yl)phenoxy)ethoxy)ethoxy)ethoxy)ethan-1-ol]
- Stability of crystal form (conversion on storage, air exposure or drying) ([3]; listed as Form II): changed to a mixture of Form II and C or a mixture of Form III and Form V upon storage

SMILES: OCCOCCOCCOCCOc1ccc(-c2nc3ccccc3s2)cc1 [Compound I Form III, 2-(2-(2-(2-(4-(benzo[d]thiazol-2-yl)phenoxy)ethoxy)ethoxy)ethoxy)ethan-1-ol]
- Stability of crystal form (conversion on storage, air exposure or drying) ([3]; listed as Form III): quickly converted to Form I upon exposure to open air

SMILES: OCCOCCOCCOCCOc1ccc(-c2nc3ccccc3s2)cc1 [Compound I Form V, 2-(2-(2-(2-(4-(benzo[d]thiazol-2-yl)phenoxy)ethoxy)ethoxy)ethoxy)ethan-1-ol]
- Stability of crystal form (conversion on storage, air exposure or drying) ([3]; listed as Form V): converted to Form I upon vacuum drying at ˜50 °C

- solubility ([4]; organic solvent or mixture, 1,4-dioxane): > 32 mg/mL
- solubility ([4]; organic solvent or mixture, 2-MeTHF): 20 to 40 mg/mL (≈ 49.6 to 99.1 mM)
- solubility ([4]; organic solvent or mixture, Acetone): 6 to 18 mg/mL (≈ 14.9 to 44.6 mM)
- solubility ([4]; organic solvent or mixture, Acetonitrile): 8 to 24 mg/mL (≈ 19.8 to 59.5 mM)
- solubility ([4]; organic solvent or mixture, CPME): < 2.6 mg/mL
- solubility ([4]; organic solvent or mixture, DCM): > 38 mg/mL
- solubility ([4]; organic solvent or mixture, DMF): > 44 mg/mL
- solubility ([4]; organic solvent or mixture, DMSO): 18 to 36 mg/mL (≈ 44.6 to 89.2 mM)
- solubility ([4]; organic solvent or mixture, EtOAc): 20 to 40 mg/mL (≈ 49.6 to 99.1 mM)
- solubility ([4]; organic solvent or mixture, EtOH): 7.3 to 22 mg/mL (≈ 18.1 to 54.5 mM)
- solubility ([4]; organic solvent or mixture, Heptane): < 2.2 mg/mL
- solubility ([4]; organic solvent or mixture, IPA): < 1.9 mg/mL
- solubility ([4]; organic solvent or mixture, IPAc): 1.7 to 5.7 mg/mL (≈ 4.21 to 14.1 mM)
- solubility ([4]; organic solvent or mixture, MEK): 18 to 36 mg/mL (≈ 44.6 to 89.2 mM)
- solubility ([4]; organic solvent or mixture, MIBK): 2.5 to 8.3 mg/mL (≈ 6.2 to 20.6 mM)
- solubility ([4]; organic solvent or mixture, MTBE): < 2 mg/mL
- solubility ([4]; organic solvent or mixture, MeOH): 21 to 42 mg/mL (≈ 52 to 104 mM)
- solubility ([4]; organic solvent or mixture, THF): > 36 mg/mL
- solubility ([4]; organic solvent or mixture, Toluene): 6 to 18 mg/mL (≈ 14.9 to 44.6 mM)
- solubility ([4]; water, H2O): < 1.8 mg/mL
- Form change after storage (XRPD) [2]: no form change was observed
SMILES: OCCOCCOCCOCCOc1ccc(-c2nc3ccccc3s2)cc1 [Compound I, 2-(2-(2-(2-(4-(benzo[d]thiazol-2-yl)phenoxy)ethoxy)ethoxy)ethoxy)ethan-1-ol]
- HPLC purity decrease after storage ([2]; 4 weeks): no significant HPLC purity decrease was observed
